The first assay concerns the target T1, Human P2X7 (hP2X7) receptor (Homo sapiens, UniProt Q99572).
T1 construct: myc-His (from the pcDNA3.1/myc-HisA vector); expressed in transfected cells
T1 sequence (Q99572 1-595): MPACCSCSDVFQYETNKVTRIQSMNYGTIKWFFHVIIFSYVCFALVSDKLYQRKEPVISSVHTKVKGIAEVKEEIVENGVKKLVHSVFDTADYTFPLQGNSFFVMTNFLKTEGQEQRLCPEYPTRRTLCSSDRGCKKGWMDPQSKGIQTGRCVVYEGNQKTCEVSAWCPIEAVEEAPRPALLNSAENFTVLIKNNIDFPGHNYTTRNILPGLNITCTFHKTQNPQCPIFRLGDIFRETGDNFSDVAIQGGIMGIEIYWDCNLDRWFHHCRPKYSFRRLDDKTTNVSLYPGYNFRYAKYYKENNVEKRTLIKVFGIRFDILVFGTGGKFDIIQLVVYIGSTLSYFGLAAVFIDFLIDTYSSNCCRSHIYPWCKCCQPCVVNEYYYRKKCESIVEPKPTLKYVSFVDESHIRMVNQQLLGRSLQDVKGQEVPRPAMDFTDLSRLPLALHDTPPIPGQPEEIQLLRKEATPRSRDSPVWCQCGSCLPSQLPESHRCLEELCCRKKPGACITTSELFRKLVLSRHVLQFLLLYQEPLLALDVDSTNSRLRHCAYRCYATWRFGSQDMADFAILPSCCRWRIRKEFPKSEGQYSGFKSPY
Description: Dye assay: BzATP-induced Yo-Pro-1 uptake in HEK293 cells stably expressing hP2X7. It counts as cell-based. The following applies: BzATP 0.1 mM, Yo-Pro-1 2 μM, 30 min pre-treatment, 90 min incubation. An outline of the steps: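 HEK293 cells stably expressing cloned human P2X7 (595 aa) were preincubated 30 min with compound, then given 2 μM Yo-Pro-1 and 0.1 mM BzATP (final) for 90 min. Dye uptake read by fluorescence (ex 485/em 535 nm); IC50 derived from % inhibition versus log concentration.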
What is called IC50 is the concentration at which inhibition is half-maximal. Take `COc1nnc(Cl)cc1C(C)NC(=O)Cn1ncc(N[C@@H]2C[C@@H]3C[C@H]([C@H]2C)C3(C)C)c(Cl)c1=O` (stereo partly shown) [compound 438]: the IC50 was 1.7 nM.
The same measure, in the same setting: in the case of `CC(NC(=O)Cn1ncc(N[C@@H]2C[C@@H]3C[C@H]([C@H]2C)C3(C)C)c(Cl)c1=O)c1ccnnc1Cl` (stereo partly shown) [compound 439] it was 2 nM.
On the same count and under the same terms, the value for `COc1nnccc1C(C)NC(=O)Cn1ncc(N[C@@H]2C[C@@H]3C[C@H]([C@H]2C)C3(C)C)c(Cl)c1=O` (stereo partly shown) [compound 441] was 1.9 nM; that for `Cc1cc(C(C)NC(=O)Cn2ncc(N[C@@H]3C[C@@H]4C[C@H]([C@H]3C)C4(C)C)c(Cl)c2=O)c(Cl)nn1` (stereo partly shown) [compound 443] was 5.6 nM.
In the case of `C[C@@H]1[C@H]2C[C@@H](C[C@H]1Nc1cnn(CC(=O)NCC3CCNC=C3S(C)(=O)=O)c(=O)c1Cl)C2(C)C` (stereo partly shown) [compound 447], the IC50 turned out to be 42 nM.
Still for that read-out and setting: the value for `C[C@@H]1[C@H]2C[C@@H](C[C@H]1Nc1cnn(CC(=O)NCc3ccnc(F)c3Cl)c(=O)c1Cl)C2(C)C` [compound 448] was 14 nM.
Same read-out and setting: the value for `CC(NC(=O)Cn1ncc(NC2CCC[C@@H]3CCCC[C@H]23)c(Cl)c1=O)c1ccncc1` (stereo partly shown) [compound 453] was 16 nM.

Still in this assay, the particulars now being: BzATP (0.1 mM)-induced Yo-Pro-1 uptake, compounds 30 min pre-treatment, 90 min incubation.
Take `CCC(NC(=O)Cn1ncc(NC23CC4CC(CC2C4)C3)c(Cl)c1=O)c1ccncn1` (stereo not shown) [compound 351]: the IC50 turned out to be 45 nM.
On the same count and under the same terms, in the case of `CC(NC(=O)Cn1ncc(NC23CC4CC(CC2C4)C3)c(Cl)c1=O)c1ccncc1Cl` (stereo not shown) [compound 354] it was 2.6 nM.
As for `CCC(NC(=O)Cn1ncc(NC2CCCCCCC2)c(Br)c1=O)c1ccncc1` (stereo not shown) [compound 355], the IC50 came to 27 nM.
`CCC(NC(=O)Cn1ncc(N[C@@H]2C[C@@H]3C[C@@H](C3(C)C)[C@]2(C)O)c(Cl)c1=O)c1ccncc1` (stereo partly shown) [compound 360]: the 50% inhibitory concentration (IC50) is 14 nM.
Still for that read-out and setting: in the case of `Cc1cnccc1CNC(=O)Cn1ncc(N[C@@H]2C[C@@H]3C[C@@H](C3(C)C)[C@]2(C)O)c(Cl)c1=O` [compound 361] it was 18 nM; in that of `CN(C)c1cnccc1CNC(=O)Cn1ncc(N[C@@H]2C[C@@H]3C[C@@H](C3(C)C)[C@]2(C)O)c(Cl)c1=O` [compound 362], 3.1 nM; in that of `CC(NC(=O)Cn1ncc(N[C@@H]2C[C@@H]3C[C@@H](C3(C)C)[C@]2(C)O)c(Cl)c1=O)c1ccncc1Cl` (stereo partly shown) [compound 363], 2.8 nM.
Take `CC(NC(=O)Cn1ncc(N[C@@H]2C[C@@H]3C[C@@H](C3(C)C)[C@]2(C)O)c(Cl)c1=O)c1ccnnc1` (stereo partly shown) [compound 364]: the IC50 was determined as 3.4 nM.
The same measure, in the same setting: the value for `CC(NC(=O)Cn1ncc(N[C@@H]2C[C@@H]3C[C@@H](C3(C)C)[C@]2(C)O)c(Cl)c1=O)c1ccnc(F)c1` (stereo partly shown) [compound 365] was 2.7 nM; that for `CN(C)c1cnccc1CNC(=O)Cn1ncc(NC23CC4CC(CC(C4)C2)C3)c(Cl)c1=O` [compound 366] was 2.6 nM; that for `CC(NC(=O)Cn1ncc(NC23CC4CC(CC(C4)C2)C3)c(Cl)c1=O)c1ccnnc1` (stereo not shown) [compound 367] was 3 nM.
The same measure, in the same setting: in the case of `C[C@@H](NC(=O)Cn1ncc(NC2C3CC4CC(C3)CC2C4)c(Cl)c1=O)c1ccncc1` (stereo partly shown) [compound 368] it was 2.6 nM; in that of `C[C@@H](NC(=O)Cn1ncc(NC2C3CCCC2CCC3)c(Cl)c1=O)c1ccncc1` (stereo partly shown) [compound 369], 2.1 nM; in that of `CC(NC(=O)Cn1ncc(NC2C3CCCC2CCC3)c(Br)c1=O)c1ccnnc1` (stereo not shown) [compound 372], 3.2 nM.
The same measure, in the same setting: in the case of `CN(C)c1cnccc1CNC(=O)Cn1ncc(NC2C3CCCC2CCC3)c(Cl)c1=O` (stereo not shown) [compound 373] it was 2.8 nM; in that of `CC(NC(=O)Cn1ncc(NC2C3CCCC2CCC3)c(Cl)c1=O)c1ccncn1` (stereo not shown) [compound 374], 6 nM.
As for `CC(NC(=O)Cn1ncc(NC2C3CCCC2CCC3)c(Cl)c1=O)c1ccnnc1` (stereo not shown) [compound 376], the IC50 worked out at 2.7 nM.
For `CC(NC(=O)Cn1ncc(NC2C3CCCC2CCC3)c(Cl)c1=O)c1ccnc(F)c1` (stereo not shown) [compound 377], the IC50 was found to be 2.3 nM.

The values above are taken from US8440666B2, “Pyridazinone compounds and P2X7 receptor inhibitors” (Nissan Chemical Industries, Ltd., priority 2007, dated 2013).
